Assay results from patent publication US10457707B2, “Substituted urea depsipeptide analogs as activators of the CLPP endopeptidase” (priority 2015, dated 2019).
≈ marks a conversion by molar mass, not a printed value. Where two headings read alike, the source gives them in different places. *1 amine or outer side, *2 acyl side, *3 side chain or, on linkers, in order; H or OH if unused. Where a SMILES comes first, the peptide text is derived from it. Bridges are numbered along the chain shown (N, C = ends). [ ]: non-standard residue; d: D form. The star is where a group is joined. Phe(3,5-F2) = N[C@@H](Cc1cc(F)cc(F)c1)C(=O)O; NMepT = CN[C@H](C(=O)O)[C@@H](C)OP(=O)(O)O; Morpholine(3S-CO) = O=C(O)[C@@H]1COCCN1; Pro(4S-Me) = C[C@@H]1CN[C@H](C(=O)O)C1; Pro(4R-Me) = C[C@H]1CN[C@H](C(=O)O)C1; NH(3,4-Me2-phenyl) = Cc1ccc(N*)cc1C; Hyp = O=C(O)[C@@H]1C[C@@H](O)CN1; NH(4-Et-phenyl) = CCc1ccc(N*)cc1; NMeT = CN[C@H](C(=O)O)[C@@H](C)O; NH(4-Me-phenyl) = Cc1ccc(N*)cc1; aThr = C[C@H](O)[C@H](N)C(=O)O; Pip = O=C(O)[C@@H]1CCCCN1; X1 = N#Cc1cc(N*)ccc1F; CO = O=C([*:1])[*:2]

Columns and labels:
Sa-ClpP = target: T1, Sa-ClpP (Staphylococcus aureus, UniProt Q2G036); assay: ADEP displacement fluorescence polarization assay (FP probe ADEP 2591); assay type: binding
T1 construct: made in house; host or cells: E. coli BL21(DE3)
T1 sequence (Q2G036 1-195): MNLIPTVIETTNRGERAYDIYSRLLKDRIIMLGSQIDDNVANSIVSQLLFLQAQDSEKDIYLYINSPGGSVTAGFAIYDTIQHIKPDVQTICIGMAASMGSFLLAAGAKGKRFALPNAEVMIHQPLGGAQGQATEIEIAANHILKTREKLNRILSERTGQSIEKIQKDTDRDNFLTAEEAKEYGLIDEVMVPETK
How it was run: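 Master mix of 15 μM S. aureus ClpP with 50 nM TAMRA-labelled ADEP 2591 probe in Tris-HCl pH 8.0, 2% DMSO, was pre-equilibrated 1 h, then incubated with compound 120 min at room temperature. Polarization (ex 530, em 579 nm) was normalized to 200 μM ADEP 2378 and DMSO controls; four-parameter fits, triplicate.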

[1] = test system: Staphylococcus aureus, USA 300 wherein ClpP is inactivated; assay: Minimal inhibitory concentration assay; assay type: cell-based
How it was run: (§1)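 CLSI broth microdilution: two-fold compound dilutions from 200 μM final, ~10^5 cfu/mL inoculum, aerobic overnight incubation at 37 °C. MIC read visually as lowest concentration preventing growth; S. aureus USA 300 compared with its ClpP-inactivated counterpart to check ClpP dependence.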

[2] = test system: Staphylococcus aureus, USA 300; assay: Minimal inhibitory concentration assay; assay type: cell-based; conditions: USA300, read-out: Minimal Inhibitory Concentrations S. aureus USA 300
How it was run: as §1

[3] = test system: Streptococcus pneumoniae, R6; assay: Minimal inhibitory concentration assay; assay type: cell-based; conditions: read-out: Minimal Inhibitory Concentrations S. pneumoniae R6
How it was run: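 Microbroth dilution with two-fold serial compound dilutions in broth, incubated aerobically overnight at 37° C. MIC taken as the lowest concentration preventing bacterial growth.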

CCc1ccc(NC(=O)N[C@@H](Cc2cc(F)cc(F)c2)C(=O)N[C@@H]2C(=O)N3CCC[C@H]3C(=O)N(C)[C@@H]([C@@H](C)O)C(=O)N[C@@H](C)C(=O)N3C[C@@H](C)C[C@H]3C(=O)O[C@H]2C)cc1 [Compound 37, (S)-3-(3,5-difluorophenyl)-2-(3-(4-ethylphenyl)ureido)-N-((2S,6S,9S,11aS,17S,18S,20aS)-9-((R)-1-hydroxyethyl)-2,6,10,18-tetramethyl-5,8,11,16,20-pentaoxohexadecahydro-1H,5H,16H-dipyrrolo[2,1-c:2′,1′-l][1]oxa[4,7,10,13]tetraazacyclohexadecin-17-yl)propanamide] ({NH(4-Et-phenyl)-CO}-[Phe(3,5-F2)][aThr]P[NMeT]A[Pro(4S-Me)]; ester 2-C)
IC50 (Sa-ClpP): 7 ± 0.4 µM | Minimal Inhibitory Concentrations S. aureus USA 300 ΔClpP [1]: 100 µM | MIC [2]: 0.1 µM (≈ 0.0826 µg/mL) | MIC [3]: 0.024 µM (≈ 0.0198 µg/mL)

Cc1ccc(NC(=O)N[C@@H](Cc2cc(F)cc(F)c2)C(=O)N[C@@H]2C(=O)N3CCC[C@H]3C(=O)N(C)[C@@H]([C@@H](C)OP(=O)(O)O)C(=O)N[C@@H](C)C(=O)N3C[C@@H](C)C[C@H]3C(=O)O[C@H]2C)cc1 [Compound 188, (R)-1-((2S,6S,9S,11aS,17S,18S,20aS)-17-((S)-3-(3,5-difluorophenyl)-2-(3-(p-tolyl)ureido)propanamido)-2,6,10,18-tetramethyl-5,8,11,16,20-pentaoxohexadecahydro-1H,5H,16H-dipyrrolo[2,1-c:2′,1′-l][1]oxa[4,7,10,13]tetraazacyclohexadecin-9-yl)ethyl dihydrogen phosphate] ({NH(4-Me-phenyl)-CO}-[Phe(3,5-F2)][aThr]P[NMepT]A[Pro(4S-Me)]; ester 2-C)
IC50 (Sa-ClpP): 13.7 ± 0.6 µM | Minimal Inhibitory Concentrations S. aureus USA 300 ΔClpP [1]: >200 µM | MIC [2]: 50 µM | MIC [3]: 13 µM

CCc1ccc(NC(=O)N[C@@H](Cc2cc(F)cc(F)c2)C(=O)N[C@@H]2C(=O)N3C[C@H](O)C[C@H]3C(=O)N3CCCC[C@H]3C(=O)N[C@@H](C)C(=O)N3C[C@H](C)C[C@H]3C(=O)O[C@H]2C)cc1 [Compound 211, (S)-3-(3,5-difluorophenyl)-2-(3-(4-ethylphenyl)ureido)-N-((2R,6S,8aS,14aS,16R,20S,21S,23aS)-16-hydroxy-2,6,21-trimethyl-5,8,14,19,23-pentaoxooctadecahydro-1H,5H,14H,19H-pyrido[2,1-i]dipyrrolo[2,1-c:2′,1′-l][1]oxa[4,7,10,13]tetraazacyclohexadecin-20-yl)propanamide] ({NH(4-Et-phenyl)-CO}-[Phe(3,5-F2)][aThr][Hyp][Pip]A[Pro(4R-Me)]; ester 2-C)
IC50 (Sa-ClpP): 6.8 ± 0.3 µM | Minimal Inhibitory Concentrations S. aureus USA 300 ΔClpP [1]: >200 µM | MIC [2]: 0.04 µM (≈ 0.0335 µg/mL) | MIC [3]: 0.005 µM (≈ 0.00419 µg/mL)

CCc1ccc(NC(=O)N[C@@H](Cc2cc(F)cc(F)c2)C(=O)N[C@@H]2C(=O)N3CCC[C@H]3C(=O)N(C)[C@@H]([C@@H](C)O)C(=O)N[C@@H](C)C(=O)N3C[C@H](C)C[C@H]3C(=O)O[C@H]2C)cc1 [Compound 42, (S)-3-(3,5-difluorophenyl)-2-(3-(4-ethylphenyl)ureido)-N-((2R,6S,9S,11aS,17S,18S,20aS)-9-((R)-1-hydroxyethyl)-2,6,10,18-tetramethyl-5,8,11,16,20-pentaoxohexadecahydro-1H,5H,16H-dipyrrolo[2,1-c:2′,1′-l][1]oxa[4,7,10,13]tetraazacyclohexadecin-17-yl)propanamide] ({NH(4-Et-phenyl)-CO}-[Phe(3,5-F2)][aThr]P[NMeT]A[Pro(4R-Me)]; ester 2-C)
IC50 (Sa-ClpP): 7.12 ± 0.2 µM | Minimal Inhibitory Concentrations S. aureus USA 300 ΔClpP [1]: 100 µM | MIC [2]: 0.1 µM (≈ 0.0826 µg/mL) | MIC [3]: 0.01 µM (≈ 0.00826 µg/mL)

C[C@@H]1C[C@H]2C(=O)O[C@@H](C)[C@H](NC(=O)[C@H](Cc3cc(F)cc(F)c3)NC(=O)Nc3ccc(F)c(C#N)c3)C(=O)N3C[C@H](O)C[C@H]3C(=O)N3CCOC[C@H]3C(=O)N[C@@H](C)C(=O)N2C1 [Compound 326, (S)-2-(3-(3-cyano-4-fluorophenyl)ureido)-3-(3,5-difluorophenyl)-N-((6aS,8R,12S,13S,15aS,17R,21S,23aS)-8-hydroxy-13,17,21-trimethyl-6,11,15,20,23-pentaoxooctadecahydro-6H,11H,15H-[1,4]oxazino[3,4-i]dipyrrolo[2,1-c:2′,1′-l][1]oxa[4,7,10,13]tetraazacyclo-hexadecin-12-yl)propanamide] ({X1-CO}-[Phe(3,5-F2)][aThr][Hyp][Morpholine(3S-CO)]A[Pro(4R-Me)]; ester 2-C)
IC50 (Sa-ClpP): 7.52 ± 0.3 µM | Minimal Inhibitory Concentrations S. aureus USA 300 ΔClpP [1]: >20 µM | MIC [2]: 20 µM (≈ 17.1 µg/mL) | MIC [3]: 0.625 µM (≈ 0.534 µg/mL)

Cc1ccc(NC(=O)N[C@@H](Cc2cc(F)cc(F)c2)C(=O)N[C@@H]2C(=O)N3C[C@H](O)C[C@H]3C(=O)N3CCCC[C@H]3C(=O)N[C@@H](C)C(=O)N3C[C@H](C)C[C@H]3C(=O)O[C@H]2C)cc1C [Compound 212, (S)-3-(3,5-difluorophenyl)-2-(3-(3,4-dimethylphenyl)ureido)-N-((2R,6S,8aS,14aS,16R,20S,21S,23aS)-16-hydroxy-2,6,21-trimethyl-5,8,14,19,23-pentaoxooctadecahydro-1H,5H,14H,19H-pyrido[2,1-i]dipyrrolo[2,1-c:2′,1′-l][1]oxa[4,7,10,13]tetraazacyclohexadecin-20-yl)propanamide] ({NH(3,4-Me2-phenyl)-CO}-[Phe(3,5-F2)][aThr][Hyp][Pip]A[Pro(4R-Me)]; ester 2-C)
IC50 (Sa-ClpP): 6.9 ± 0.3 µM | Minimal Inhibitory Concentrations S. aureus USA 300 ΔClpP [1]: >200 µM | MIC [2]: 0.1 µM (≈ 0.0838 µg/mL) | MIC [3]: 0.002 µM (≈ 0.00168 µg/mL)

Cc1ccc(NC(=O)N[C@@H](Cc2cc(F)cc(F)c2)C(=O)N[C@@H]2C(=O)N3CCC[C@H]3C(=O)N(C)[C@@H]([C@@H](C)O)C(=O)N[C@@H](C)C(=O)N3C[C@H](C)C[C@H]3C(=O)O[C@H]2C)cc1 [Compound 38, (S)-3-(3,5-difluorophenyl)-N-((2R,6S,9S,11aS,17S,18S,20aS)-9-((R)-1-hydroxyethyl)-2,6,10,18-tetramethyl-5,8,11,16,20-pentaoxohexadecahydro-1H,5H,16H-dipyrrolo[2,1-c:2′,1′-l][1]oxa[4,7,10,13]tetraazacyclohexadecin-17-yl)-2-(3-(p-tolyl)ureido)propanamide] ({NH(4-Me-phenyl)-CO}-[Phe(3,5-F2)][aThr]P[NMeT]A[Pro(4R-Me)]; ester 2-C)
IC50 (Sa-ClpP): 6.52 ± 0.3 µM | Minimal Inhibitory Concentrations S. aureus USA 300 ΔClpP [1]: 200 µM | MIC [2]: 0.1 µM (≈ 0.0812 µg/mL) | MIC [3]: 0.02 µM (≈ 0.0162 µg/mL)

Cc1ccc(NC(=O)N[C@@H](Cc2cc(F)cc(F)c2)C(=O)N[C@@H]2C(=O)N3CCC[C@H]3C(=O)N3CCCC[C@H]3C(=O)N[C@@H](C)C(=O)N3C[C@H](C)C[C@H]3C(=O)O[C@H]2C)cc1 [Compound 209, (S)-3-(3,5-difluorophenyl)-2-(3-(p-tolyl)ureido)-N-((2R,6S,8aS,14aS,20S,21S,23aS)-2,6,21-trimethyl-5,8,14,19,23-pentaoxooctadecahydro-1H,5H,14H,19H-pyrido[2,1-i]dipyrrolo[2,1-c:2′,1′-l][1]oxa[4,7,10,13]tetraazacyclohexadecin-20-yl)propanamide] ({NH(4-Me-phenyl)-CO}-[Phe(3,5-F2)][aThr]P[Pip]A[Pro(4R-Me)]; ester 2-C)
IC50 (Sa-ClpP; displacement of FP probe ADEP 2591 from Sa-ClpP, read-out: ADEP Displacement IC50): 9 ± 0.4 µM | Minimal Inhibitory Concentrations S. aureus USA 300 ΔClpP [1]: 100 µM | MIC [2]: 0.05 µM (≈ 0.0404 µg/mL) | MIC [3]: 0.05 µM (≈ 0.0404 µg/mL)

Cc1ccc(NC(=O)N[C@@H](Cc2cc(F)cc(F)c2)C(=O)N[C@@H]2C(=O)N3C[C@H](O)C[C@H]3C(=O)N3CCOC[C@H]3C(=O)N[C@@H](C)C(=O)N3C[C@H](C)C[C@H]3C(=O)O[C@H]2C)cc1C [Compound 215, (S)-3-(3,5-difluorophenyl)-2-(3-(3,4-dimethylphenyl)ureido)-N-((6aS,8R,12S,13S,15aS,17R,21S,23aS)-8-hydroxy-13,17,21-trimethyl-6,11,15,20,23-pentaoxooctadecahydro-6H,11H,15H-[1,4]oxazino[3,4-i]dipyrrolo[2,1-c:2′,1′-l][1]oxa[4,7,10,13]tetraazacyclohexadecin-12-yl)propanamide] ({NH(3,4-Me2-phenyl)-CO}-[Phe(3,5-F2)][aThr][Hyp][Morpholine(3S-CO)]A[Pro(4R-Me)]; ester 2-C)
IC50 (Sa-ClpP): 6.8 ± 0.3 µM | MIC [2]: 0.8 µM (≈ 0.672 µg/mL) | MIC [3]: < 0.2 µM

C[C@@H]1C[C@H]2C(=O)OC[C@H](NC(=O)[C@H](Cc3ccccc3)NC(=O)Nc3ccc4c(c3)OCO4)C(=O)N3CCC[C@H]3C(=O)N3CCCC[C@H]3C(=O)N[C@@H](C)C(=O)N2C1 [Compound 194, (S)-2-(3-(benzo[d][1,3]dioxol-5-yl)ureido)-N-((2R,6S,8aS,14aS,20S,23aS)-2,6-dimethyl-5,8,14,19,23-pentaoxooctadecahydro-1H,5H,14H,19H-pyrido[2,1-i]dipyrrolo[2,1-c:2′,1′-l][1]oxa[4,7,10,13]tetraazacyclohexadecin-20-yl)-3-phenylpropanamide]
IC50 (Sa-ClpP): 8 ± 0.6 µM | MIC [3]: < 0.2 µM
